The structures appear in SMILES notation. Entries after “also recorded” stand apart in the source; their conditions may differ. Like-named read-outs stand apart in the source and are kept apart here. Where only a bound is given, the exact number is not on record here.

This is an account of results in patent US10494332B2, “Protein tyrosine phosphatases or SHP2 inhibitors and uses thereof” (Indiana University Research and Technology Corporation, priority 2015, dated 2019).

One assay concerns the target mPTPA (Mycobacterium tuberculosis, UniProt P9WIA1). The assay can be described thus: biochemical. Conditions: IC50 mPTPA.
Another assay addresses T1, LMWPTP (Homo sapiens, UniProt P24666).
T1 sequence (P24666 1-158): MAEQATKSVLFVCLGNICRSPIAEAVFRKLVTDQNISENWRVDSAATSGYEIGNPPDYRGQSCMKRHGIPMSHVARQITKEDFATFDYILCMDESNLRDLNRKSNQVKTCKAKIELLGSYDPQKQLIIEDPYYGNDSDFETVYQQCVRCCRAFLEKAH
The assay is described as follows: PTP inhibition assay (pNPP). It counts as biochemical.

For the next assay, the target named is PTPμ (Homo sapiens, UniProt P28827). The assay is described as follows: biochemical.
Chain of PTPμ (P28827 21-1452): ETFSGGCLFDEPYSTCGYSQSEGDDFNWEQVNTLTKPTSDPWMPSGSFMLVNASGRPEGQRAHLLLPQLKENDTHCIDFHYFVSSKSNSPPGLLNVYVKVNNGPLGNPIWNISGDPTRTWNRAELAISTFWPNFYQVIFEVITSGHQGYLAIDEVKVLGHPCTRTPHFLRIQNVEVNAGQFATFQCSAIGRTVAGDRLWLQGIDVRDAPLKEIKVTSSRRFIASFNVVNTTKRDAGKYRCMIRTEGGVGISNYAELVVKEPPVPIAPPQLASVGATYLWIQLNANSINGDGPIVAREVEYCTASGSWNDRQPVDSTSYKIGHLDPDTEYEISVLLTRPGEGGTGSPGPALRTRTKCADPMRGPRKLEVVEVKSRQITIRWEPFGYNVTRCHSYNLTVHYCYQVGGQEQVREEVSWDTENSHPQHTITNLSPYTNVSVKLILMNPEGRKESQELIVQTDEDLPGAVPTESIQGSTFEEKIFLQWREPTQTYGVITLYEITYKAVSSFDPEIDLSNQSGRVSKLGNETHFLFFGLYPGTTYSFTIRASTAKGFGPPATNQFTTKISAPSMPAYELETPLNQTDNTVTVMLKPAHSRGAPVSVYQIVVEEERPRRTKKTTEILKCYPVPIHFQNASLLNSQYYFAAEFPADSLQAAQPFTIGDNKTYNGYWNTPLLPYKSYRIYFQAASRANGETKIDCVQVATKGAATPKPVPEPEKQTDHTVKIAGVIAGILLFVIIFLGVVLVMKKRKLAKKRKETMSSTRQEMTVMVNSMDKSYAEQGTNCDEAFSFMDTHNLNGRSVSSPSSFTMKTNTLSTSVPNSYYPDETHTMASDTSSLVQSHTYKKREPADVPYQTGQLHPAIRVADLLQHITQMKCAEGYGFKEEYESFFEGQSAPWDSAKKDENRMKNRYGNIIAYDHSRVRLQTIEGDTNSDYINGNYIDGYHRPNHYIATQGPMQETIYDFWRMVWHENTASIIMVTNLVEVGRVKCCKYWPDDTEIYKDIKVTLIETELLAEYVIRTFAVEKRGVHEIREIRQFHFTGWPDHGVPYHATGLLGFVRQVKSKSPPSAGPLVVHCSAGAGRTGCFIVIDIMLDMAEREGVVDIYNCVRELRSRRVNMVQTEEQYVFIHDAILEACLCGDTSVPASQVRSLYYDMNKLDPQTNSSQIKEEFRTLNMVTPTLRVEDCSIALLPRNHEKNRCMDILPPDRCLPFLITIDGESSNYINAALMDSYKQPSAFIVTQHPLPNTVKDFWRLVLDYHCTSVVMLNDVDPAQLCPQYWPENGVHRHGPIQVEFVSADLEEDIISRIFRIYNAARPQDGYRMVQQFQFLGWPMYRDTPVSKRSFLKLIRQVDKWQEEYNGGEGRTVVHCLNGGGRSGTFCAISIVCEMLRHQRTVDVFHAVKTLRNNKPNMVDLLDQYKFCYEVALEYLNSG
In a further assay the target is T2, SHP2 (Homo sapiens, UniProt Q06124).
T2 sequence (Q06124 224-528): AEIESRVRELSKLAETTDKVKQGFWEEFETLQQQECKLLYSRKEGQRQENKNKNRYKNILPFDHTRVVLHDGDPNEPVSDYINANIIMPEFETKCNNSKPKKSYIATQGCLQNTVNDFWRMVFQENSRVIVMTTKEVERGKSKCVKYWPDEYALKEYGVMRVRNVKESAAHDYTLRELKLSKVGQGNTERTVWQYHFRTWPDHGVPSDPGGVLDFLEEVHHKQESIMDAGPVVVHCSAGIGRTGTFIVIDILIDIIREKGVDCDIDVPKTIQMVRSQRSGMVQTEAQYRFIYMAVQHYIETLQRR
The assay can be described thus: SHP2 phosphatase inhibition assay (pNPP). It counts as biochemical. Conditions: for IC50: Example 9: SHP2 catalytic domain 20 nM, pNPP 3 mM, pH 7.0, 25° C., read-out: IC50 SHP2.

A further assay deals with T3, PP5 (Homo sapiens, UniProt P53041).
T3 sequence (P53041 1-499): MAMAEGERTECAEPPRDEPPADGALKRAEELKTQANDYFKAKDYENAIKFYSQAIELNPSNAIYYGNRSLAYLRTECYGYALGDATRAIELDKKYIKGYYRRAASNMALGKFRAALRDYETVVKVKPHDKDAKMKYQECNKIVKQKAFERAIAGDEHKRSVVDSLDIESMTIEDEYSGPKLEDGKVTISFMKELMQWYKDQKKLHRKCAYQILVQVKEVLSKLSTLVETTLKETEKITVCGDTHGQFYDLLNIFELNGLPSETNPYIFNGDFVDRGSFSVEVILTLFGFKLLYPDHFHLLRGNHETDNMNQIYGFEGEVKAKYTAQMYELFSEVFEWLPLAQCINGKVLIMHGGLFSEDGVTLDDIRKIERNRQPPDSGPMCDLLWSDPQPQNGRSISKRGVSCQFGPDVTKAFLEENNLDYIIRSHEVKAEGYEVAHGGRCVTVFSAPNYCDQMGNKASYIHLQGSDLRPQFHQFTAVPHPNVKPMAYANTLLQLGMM
The assay is described as follows: biochemical.

The test system of assay [1] is H1975 non-small cell lung cancer (NSCLC) cell line. The assay is described as follows: MTT cell proliferation assay. Conditions: 20 μM and 40 μM, 2 days. The format is cell-based, human. As to the method: (§1) Human non-small cell lung carcinoma cell line H1975 was cultured at 37° C. and 5% CO2 in RPMI-1640 (Corning) supplemented with 10% fetal bovine serum (HyClone). Human breast cancer cell line MDA-MB-231 was cultured in DMEM supplemented with 10% fetal bovine serum. For cell proliferation assay, 2˜3×10^3 cells were seeded in each well of 96-well plates. After treating cells with compounds for 2 days, cells were incubated with 50 μg/ml MTT (3-(4,5-Dimethylthiazol-2-yl)-2,5-diphenyltetrazolium bromide) for ˜3-4 hours. Then, the culture medium was removed, DMSO was added to dissolve the formazan crystals. Wells containing only media were used for background correction. The optical density was measured spectrophotometrically at 540 nm. For signaling analysis, cells were serum-starved overnight followed by treatment with vehicle or compounds for 3 hours, and then either left un-stimulated or stimulated with 5 μg/ml EGF or 10 nM PMA (Sigma) for indicated time. Cells were lysed and the lysates were electrophoresed on a 10% polyacrylamide gel, and then transferred to a nitrocellulose membrane, and probed with anti-phospho-ERK1/2 and anti-ERK1/2 (Cell Signaling) antibodies followed by incubation with horseradish peroxidase-conjugated secondary antibodies. The blots were developed by the enhanced chemiluminescence technique using the SuperSignal West Pico Chemiluminescent substrate (Pierce).
(Tetrazolium assays rely on reduction of a dye to a coloured formazan, in cell work by metabolically active cells.)

Assay [2] deals with MDA-MB-231 breast cancer cell line. The assay is described as follows: MTT cell proliferation assay. The format is cell-based, human. The note with it: 20 μM and 40 μM, 2 days. The method, then: as §1
A further assay addresses T4, Ssu72 (Homo sapiens, UniProt Q9NP77).
T4 sequence (Q9NP77 1-194): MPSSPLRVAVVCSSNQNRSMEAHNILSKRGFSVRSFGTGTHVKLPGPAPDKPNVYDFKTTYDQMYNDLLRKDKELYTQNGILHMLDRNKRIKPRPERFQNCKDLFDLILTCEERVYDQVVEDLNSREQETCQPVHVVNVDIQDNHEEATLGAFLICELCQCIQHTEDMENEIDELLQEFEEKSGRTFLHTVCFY
The assay can be described thus: PTP inhibition assay (pNPP). It counts as biochemical. Conditions: IC50 Ssu72.

In another assay the target is T5, PEST (Homo sapiens, UniProt Q05209).
T5 sequence (Q05209 1-780): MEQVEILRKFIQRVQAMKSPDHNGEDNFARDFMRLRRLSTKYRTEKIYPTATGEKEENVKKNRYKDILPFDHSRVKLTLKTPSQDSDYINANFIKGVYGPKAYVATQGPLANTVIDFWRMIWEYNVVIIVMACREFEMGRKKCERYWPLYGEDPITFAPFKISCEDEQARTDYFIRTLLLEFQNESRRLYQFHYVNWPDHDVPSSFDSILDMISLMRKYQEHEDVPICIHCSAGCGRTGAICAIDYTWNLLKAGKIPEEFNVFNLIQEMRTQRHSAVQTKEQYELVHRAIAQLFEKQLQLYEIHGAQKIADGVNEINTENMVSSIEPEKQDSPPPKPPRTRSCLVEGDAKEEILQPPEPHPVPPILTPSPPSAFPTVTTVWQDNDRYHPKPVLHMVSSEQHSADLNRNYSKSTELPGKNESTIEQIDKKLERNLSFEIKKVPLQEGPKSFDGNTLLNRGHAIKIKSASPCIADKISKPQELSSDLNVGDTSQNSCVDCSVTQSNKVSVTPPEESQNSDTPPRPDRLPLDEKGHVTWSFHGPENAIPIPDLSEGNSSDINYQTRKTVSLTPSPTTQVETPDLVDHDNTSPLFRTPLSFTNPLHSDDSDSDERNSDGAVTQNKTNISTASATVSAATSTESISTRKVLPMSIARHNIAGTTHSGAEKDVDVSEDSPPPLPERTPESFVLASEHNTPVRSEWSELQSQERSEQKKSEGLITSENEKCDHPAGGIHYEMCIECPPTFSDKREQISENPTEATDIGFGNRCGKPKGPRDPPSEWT
The assay can be described thus: PTP inhibition assay (pNPP). The format is biochemical.

The next assay addresses TbPTP1 (Trypanosoma brucei brucei, UniProt Q38AT7). The assay can be described thus: PTP inhibition assay (pNPP). The format is biochemical. Conditions: pH 7.0, 25° C.
Another assay has as its target FAP1 (Homo sapiens, UniProt Q12923). The assay is described as follows: PTP inhibition assay (pNPP). Conditions: IC50 FAP1. The format is biochemical.
The next assay has as its target T6, VHX (Homo sapiens, UniProt Q9NRW4).
T6 sequence (Q9NRW4 1-184): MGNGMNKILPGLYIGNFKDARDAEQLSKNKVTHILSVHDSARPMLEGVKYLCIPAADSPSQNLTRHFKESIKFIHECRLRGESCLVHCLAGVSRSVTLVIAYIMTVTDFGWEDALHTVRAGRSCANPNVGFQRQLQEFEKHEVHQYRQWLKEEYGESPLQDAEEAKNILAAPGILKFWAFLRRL
The assay can be described thus: PTP inhibition assay (pNPP). The note with it: IC50 VHX, pNPP at Km, pH 7.0, 25° C. It counts as biochemical.

For a further assay, the target named is T7, STEP (Homo sapiens, UniProt P54829).
T7 sequence (P54829 1-565): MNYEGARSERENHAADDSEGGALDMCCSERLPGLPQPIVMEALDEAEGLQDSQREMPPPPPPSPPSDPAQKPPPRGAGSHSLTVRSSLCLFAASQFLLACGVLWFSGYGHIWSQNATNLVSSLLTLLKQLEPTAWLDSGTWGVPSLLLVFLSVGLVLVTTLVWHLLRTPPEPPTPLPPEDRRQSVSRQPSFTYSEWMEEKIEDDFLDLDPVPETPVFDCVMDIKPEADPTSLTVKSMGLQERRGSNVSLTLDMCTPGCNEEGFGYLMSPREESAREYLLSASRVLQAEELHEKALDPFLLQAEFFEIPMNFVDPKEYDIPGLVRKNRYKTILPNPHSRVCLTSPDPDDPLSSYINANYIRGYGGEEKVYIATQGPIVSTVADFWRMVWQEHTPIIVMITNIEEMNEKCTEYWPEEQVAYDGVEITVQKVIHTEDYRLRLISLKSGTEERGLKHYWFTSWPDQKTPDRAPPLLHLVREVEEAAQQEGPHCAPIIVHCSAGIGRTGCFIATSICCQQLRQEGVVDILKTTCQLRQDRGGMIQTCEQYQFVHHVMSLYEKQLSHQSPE
The assay can be described thus: PTP inhibition assay (pNPP). It counts as biochemical. The note with it: IC50 STEP, pNPP at Km, pH 7.0, 25° C.

A further assay addresses SHP1 (Homo sapiens, UniProt P29350). The assay can be described thus: PTP inhibition assay (pNPP). It counts as biochemical. The note with it: pNPP at Km, pH 7.0, 25° C.
In a further assay the target is T8, Laforin (Homo sapiens, UniProt O95278).
T8 sequence (O95278 1-331): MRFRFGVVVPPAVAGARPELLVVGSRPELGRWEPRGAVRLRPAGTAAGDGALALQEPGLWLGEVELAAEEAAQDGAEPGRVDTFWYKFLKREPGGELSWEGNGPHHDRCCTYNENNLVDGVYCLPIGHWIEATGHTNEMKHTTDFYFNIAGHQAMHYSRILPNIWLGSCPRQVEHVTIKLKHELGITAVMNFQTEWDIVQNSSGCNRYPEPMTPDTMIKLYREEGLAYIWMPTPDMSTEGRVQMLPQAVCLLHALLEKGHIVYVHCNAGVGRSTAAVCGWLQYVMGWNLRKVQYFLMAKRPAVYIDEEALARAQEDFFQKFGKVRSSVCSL
The assay can be described thus: PTP inhibition assay (pNPP). The format is biochemical. Conditions: pNPP at Km, pH 7.0, 25° C.; read-out: IC50 Laforin.

Chain of SHP1 (P29350 whole entry): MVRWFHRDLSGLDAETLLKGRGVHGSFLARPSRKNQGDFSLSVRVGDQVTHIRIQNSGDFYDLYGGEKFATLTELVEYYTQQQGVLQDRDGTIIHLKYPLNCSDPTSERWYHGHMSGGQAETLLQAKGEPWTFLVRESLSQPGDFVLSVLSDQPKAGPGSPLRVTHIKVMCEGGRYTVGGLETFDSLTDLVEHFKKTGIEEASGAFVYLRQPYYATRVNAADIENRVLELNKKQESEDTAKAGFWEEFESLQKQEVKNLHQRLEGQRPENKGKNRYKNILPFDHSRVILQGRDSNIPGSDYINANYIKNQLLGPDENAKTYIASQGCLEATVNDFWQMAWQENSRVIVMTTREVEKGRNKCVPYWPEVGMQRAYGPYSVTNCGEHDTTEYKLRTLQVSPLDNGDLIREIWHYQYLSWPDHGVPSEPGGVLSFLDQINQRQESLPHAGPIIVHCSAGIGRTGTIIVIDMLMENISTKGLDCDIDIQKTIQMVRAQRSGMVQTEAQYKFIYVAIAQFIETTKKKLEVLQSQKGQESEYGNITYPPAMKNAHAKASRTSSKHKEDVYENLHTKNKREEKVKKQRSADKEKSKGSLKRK
Chain of TbPTP1 (Q38AT7 entry or part of it): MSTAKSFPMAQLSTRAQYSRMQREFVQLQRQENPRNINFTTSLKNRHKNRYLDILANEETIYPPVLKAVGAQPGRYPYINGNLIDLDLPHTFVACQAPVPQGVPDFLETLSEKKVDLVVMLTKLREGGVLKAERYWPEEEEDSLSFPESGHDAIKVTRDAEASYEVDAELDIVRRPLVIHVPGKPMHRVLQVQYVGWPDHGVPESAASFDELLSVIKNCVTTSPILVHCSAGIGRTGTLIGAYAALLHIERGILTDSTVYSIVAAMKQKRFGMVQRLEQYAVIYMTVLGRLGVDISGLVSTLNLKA
Chain of mPTPA (P9WIA1 whole entry): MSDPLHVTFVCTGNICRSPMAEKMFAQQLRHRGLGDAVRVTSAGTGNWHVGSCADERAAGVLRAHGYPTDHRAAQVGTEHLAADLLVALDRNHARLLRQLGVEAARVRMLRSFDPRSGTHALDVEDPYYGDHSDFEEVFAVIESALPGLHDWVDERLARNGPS
Chain of FAP1 (Q12923 whole entry): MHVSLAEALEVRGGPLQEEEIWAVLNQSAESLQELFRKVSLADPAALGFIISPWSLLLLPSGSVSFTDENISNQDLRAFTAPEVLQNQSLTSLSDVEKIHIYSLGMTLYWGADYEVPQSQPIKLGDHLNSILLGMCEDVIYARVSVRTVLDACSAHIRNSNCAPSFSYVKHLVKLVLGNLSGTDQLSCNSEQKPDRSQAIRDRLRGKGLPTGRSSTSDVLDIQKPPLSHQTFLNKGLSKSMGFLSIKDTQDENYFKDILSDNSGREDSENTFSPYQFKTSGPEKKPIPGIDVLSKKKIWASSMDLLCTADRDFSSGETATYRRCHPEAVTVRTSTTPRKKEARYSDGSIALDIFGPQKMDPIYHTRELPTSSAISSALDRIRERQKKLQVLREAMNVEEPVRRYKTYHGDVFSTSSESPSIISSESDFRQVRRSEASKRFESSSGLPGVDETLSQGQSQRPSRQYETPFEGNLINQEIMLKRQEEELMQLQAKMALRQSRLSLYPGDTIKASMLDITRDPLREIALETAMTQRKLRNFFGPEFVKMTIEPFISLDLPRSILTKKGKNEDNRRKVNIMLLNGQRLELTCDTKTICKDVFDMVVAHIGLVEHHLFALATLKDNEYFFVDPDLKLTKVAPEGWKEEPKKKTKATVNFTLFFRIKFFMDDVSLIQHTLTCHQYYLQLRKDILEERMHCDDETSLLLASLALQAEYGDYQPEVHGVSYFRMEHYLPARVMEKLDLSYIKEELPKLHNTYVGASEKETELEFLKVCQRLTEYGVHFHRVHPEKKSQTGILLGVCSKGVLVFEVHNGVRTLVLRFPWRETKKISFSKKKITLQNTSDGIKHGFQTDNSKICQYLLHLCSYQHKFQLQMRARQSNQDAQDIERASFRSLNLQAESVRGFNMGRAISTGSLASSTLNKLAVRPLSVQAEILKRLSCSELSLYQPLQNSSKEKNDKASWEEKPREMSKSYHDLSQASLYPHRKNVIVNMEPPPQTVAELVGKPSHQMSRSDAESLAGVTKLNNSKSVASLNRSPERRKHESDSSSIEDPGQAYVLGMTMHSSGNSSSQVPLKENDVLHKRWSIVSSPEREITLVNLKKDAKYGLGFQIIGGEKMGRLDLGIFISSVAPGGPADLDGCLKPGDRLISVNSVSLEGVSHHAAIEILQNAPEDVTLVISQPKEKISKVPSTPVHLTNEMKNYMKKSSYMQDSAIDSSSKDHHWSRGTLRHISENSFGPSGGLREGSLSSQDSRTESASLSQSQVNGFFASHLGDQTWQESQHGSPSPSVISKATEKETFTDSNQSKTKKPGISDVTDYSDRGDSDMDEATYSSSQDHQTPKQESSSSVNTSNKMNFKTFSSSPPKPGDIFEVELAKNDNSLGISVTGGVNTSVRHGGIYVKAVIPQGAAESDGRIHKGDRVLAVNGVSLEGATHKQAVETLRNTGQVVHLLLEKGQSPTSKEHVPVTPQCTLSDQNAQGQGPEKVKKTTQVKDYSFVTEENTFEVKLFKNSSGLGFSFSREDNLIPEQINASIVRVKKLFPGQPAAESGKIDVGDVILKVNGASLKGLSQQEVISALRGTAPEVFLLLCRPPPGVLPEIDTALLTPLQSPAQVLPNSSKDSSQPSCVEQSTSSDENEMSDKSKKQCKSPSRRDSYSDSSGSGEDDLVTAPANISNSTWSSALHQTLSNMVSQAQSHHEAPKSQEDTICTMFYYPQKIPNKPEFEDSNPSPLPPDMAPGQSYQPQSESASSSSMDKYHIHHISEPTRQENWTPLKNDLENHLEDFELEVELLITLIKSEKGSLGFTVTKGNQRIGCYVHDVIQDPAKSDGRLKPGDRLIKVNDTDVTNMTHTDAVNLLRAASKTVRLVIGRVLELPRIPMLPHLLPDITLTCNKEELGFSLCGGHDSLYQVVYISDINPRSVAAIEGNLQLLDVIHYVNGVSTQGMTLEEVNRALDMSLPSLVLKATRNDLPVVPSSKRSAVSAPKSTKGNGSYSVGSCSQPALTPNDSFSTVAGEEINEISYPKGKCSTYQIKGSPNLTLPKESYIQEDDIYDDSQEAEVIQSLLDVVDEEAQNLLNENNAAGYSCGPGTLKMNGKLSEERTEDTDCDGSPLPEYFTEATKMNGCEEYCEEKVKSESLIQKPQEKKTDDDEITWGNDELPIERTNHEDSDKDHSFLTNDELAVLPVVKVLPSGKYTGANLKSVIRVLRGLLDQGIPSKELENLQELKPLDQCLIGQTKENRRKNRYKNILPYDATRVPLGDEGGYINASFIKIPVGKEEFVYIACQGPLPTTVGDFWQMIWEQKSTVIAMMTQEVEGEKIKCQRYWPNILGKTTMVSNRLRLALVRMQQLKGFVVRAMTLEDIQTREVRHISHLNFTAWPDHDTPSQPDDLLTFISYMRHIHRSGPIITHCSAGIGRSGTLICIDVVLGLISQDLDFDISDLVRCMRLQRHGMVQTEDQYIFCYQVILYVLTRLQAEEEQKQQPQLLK

`O=C(CS(=O)(=O)O)Nc1ccc(N2CCOCC2)cc1`: the concentration for half-maximal inhibition (IC50) on mPTPA worked out at 2.2 µM; on LMWPTP (pNPP at Km, pH 7.0, 25° C.), 63 µM.

`O=C(Nc1ccc(NC(=O)C(c2ccccc2)S(=O)(=O)O)cc1)C(=O)Nc1ccc(-c2cccs2)cc1` (stereo not shown) [Compound 3, 2-oxo-2-((4-(2-oxo-2-((4-(thiophen-2-yl)phenyl)amino)acetamido)phenyl)amino)-1-phenylethanesulfonic acid]: the IC50 against PTPμ was greater than 10 µM; at SHP2, 0.9 µM; against PP5, greater than 10 µM. For the same compound, in assay [1], the “H1975 cell proliferation (MTT)” value is “no significant effect”.

As to `O=C(Nc1ccc(NC(=O)C(c2ccccc2)S(=O)(=O)O)cc1)C(=O)Nc1cc(-c2ccc(Br)cc2)n[nH]1` (stereo not shown) [Compound 4, 2-((4-(2-((3-(4-bromophenyl)-1H-pyrazol-5-yl)amino)-2-oxoacetamido)phenyl)amino)-2-oxo-1-phenylethanesulfonic acid], the IC50 against PTPμ is greater than 10 µM; on SHP2, 0.73 ± 0.02 µM; at PP5, greater than 10 µM. In addition, the “Fold selectivity for SHP2 against PTPs examined” value on SHP2 (cefsulodin: with the exception of SHP1) is no less than 8 fold. The “H1975 cell proliferation (MTT)” value in assay [1] is recorded as “no significant effect”.

Regarding `CC(C)c1ccc(NC(=O)C(=O)Nc2ccc(NC(=O)C(c3ccccc3)S(=O)(=O)O)cc2)cc1` (stereo not shown) [Compound 6, 2-((4-(2-((4-isopropylphenyl)amino)-2-oxoacetamido)phenyl)amino)-2-oxo-1-phenylethanesulfonic acid], on SHP2, the IC50 came to 2.33 ± 0.04 µM. The “MDA-MB-231 cell survival/growth (MTT)” value in assay [2] is “significantly (**p<0.01) reduced cell survival”. For the same compound, the “H1975 cell proliferation (MTT)” value in assay [1] is on record as “reduce H1975 cell proliferation in a dose dependent manner; also recorded: significantly (**p<0.01) reduced cell proliferation”.

For the compound `O=C(Nc1ccc(OCc2ccccc2)c(Cl)c1)C(=O)Nc1ccccc1NC(=O)C(c1ccccc1)S(=O)(=O)O` (stereo not shown) [Compound L319-21-M50], the IC50 against Ssu72 was greater than 50 µM; against PEST (IC50 PEST), greater than 50 µM; on TbPTP1 (pNPP at Km, read-out: IC50 TbPTP1) it was greater than 50 µM; at FAP1 it was 39 µM; at VHX, greater than 50 µM.

On to `O=C(Nc1ccc(-n2ccnc2)cc1)C(c1ccccc1)S(=O)(=O)O` (stereo not shown) [Compound L319M63], for which the IC50 against STEP is greater than 100 µM; against SHP1 it was greater than 200 µM; against TbPTP1 (IC50 TbPTP1, pNPP at Km), greater than 100 µM; against LMWPTP (pH 7), 7.7 µM; on VHX it was greater than 200 µM.

On to `O=C(O)Cc1csc(NC(=O)C(c2ccccc2)S(=O)(=O)O)n1` (stereo not shown) [Compound L319N72], for which the 50% inhibitory concentration (IC50) is greater than 200 µM at PEST (pNPP at Km, pH 7.0, 25° C., read-out: IC50 PEST); 4.8 µM at Laforin; 98.1 µM against LMWPTP (pNPP at Km, pH 7.0, 25° C.).

`CO[C@@]1(NC(=O)C(C(=O)O)c2ccc(O)cc2)C(=O)N2C(C(=O)O)=C(CSc3nnnn3C)CO[C@@H]21` (stereo partly shown) [moxalactam, reference compound] came in with an IC50 against SHP1 of 170 µM.

Broadly, the IC50 is the midpoint of a concentration-inhibition curve.
